Reference: patent US5147868A, “Thienamycin renal peptidase inhibitors” (Merck & Co., Inc., priority 1992, dated 1992)
Each block holds one compound with its values, some of them ahead of it.

Legend:
[1] = target: T1, dipeptidase (E.C.3.4.13.11), pig renal enzyme (Sus scrofa, UniProt P22412); assay: in vitro inhibition of hydrolysis of glycyldehydrophenylalanine (GDP) by solubilized renal dipeptidase; type: biochemical, pig (hog kidneys)
T1 construct: solubilized preparation of dipeptidase isolated from hog kidneys; from tissue; host or cells: hog kidney
T1 sequence (P22412 17-409): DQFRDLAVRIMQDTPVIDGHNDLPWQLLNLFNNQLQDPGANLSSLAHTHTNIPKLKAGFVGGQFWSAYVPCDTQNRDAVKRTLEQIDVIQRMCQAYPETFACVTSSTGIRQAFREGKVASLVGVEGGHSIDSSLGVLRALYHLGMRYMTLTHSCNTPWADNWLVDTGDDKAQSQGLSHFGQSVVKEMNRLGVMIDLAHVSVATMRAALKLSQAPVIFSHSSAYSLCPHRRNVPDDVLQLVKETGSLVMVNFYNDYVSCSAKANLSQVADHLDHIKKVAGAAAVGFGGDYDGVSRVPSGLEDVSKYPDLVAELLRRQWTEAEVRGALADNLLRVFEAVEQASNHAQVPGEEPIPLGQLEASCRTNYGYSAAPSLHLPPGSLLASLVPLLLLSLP
Protocol: This measured the ability of compounds to inhibit hydrolysis of glycyldehydrophenylalanine (GDP) by a solubilized preparation of dipeptidase isolated from hog kidneys. The procedure is as follows: to a 1 ml. system containing 50 mM "MOPS" (3-(N-morpholino)propanesulfonic acid) buffer, pH 7.1, is added 5 μg of lyophilized enzyme, and the test compound at a final concentration of 0.1 mM. After a five minute incubation at 37° C., GDP is added to a final concentration of 0.05 mM. Incubation is continued for 10 minutes, at 37° C. and hydrolysis of GDP is measured by the change in optical density with time at 275 nm. Inhibition of the enzyme is gauged by comparison to a standard run containing no inhibitor and is expressed as the inhibitor binding constant, Ki.
A 1 ml. system of 50 mM "MOPS" buffer, pH 7.1, is used. To this is added 5 μg of the pig renal enzyme and an amount of the test compound to bring its final concentration to 0.1 mM. After a five minute incubation at 37° C., an amount of GDP is added to bring its final concentration to 0.05 mM. The system is again incubated for 10 minutes, at 37° C. Hydrolysis of GDP is measured by its change in optical density with time at 275 nm. Inhibition of the enzyme is gauged by comparison to a standard run containing no inhibitor and is presented as percent inhibition.

renal dipeptidase = target: T2, renal dipeptidase (Sus scrofa, UniProt P22412); assay: affinity and hydrolysis of substrates by renal dipeptidase; type: biochemical, pig (hog kidneys); settings: compared with thienamycin
T2 construct: disulfide-linked homodimer
T2 sequence (P22412 17-384): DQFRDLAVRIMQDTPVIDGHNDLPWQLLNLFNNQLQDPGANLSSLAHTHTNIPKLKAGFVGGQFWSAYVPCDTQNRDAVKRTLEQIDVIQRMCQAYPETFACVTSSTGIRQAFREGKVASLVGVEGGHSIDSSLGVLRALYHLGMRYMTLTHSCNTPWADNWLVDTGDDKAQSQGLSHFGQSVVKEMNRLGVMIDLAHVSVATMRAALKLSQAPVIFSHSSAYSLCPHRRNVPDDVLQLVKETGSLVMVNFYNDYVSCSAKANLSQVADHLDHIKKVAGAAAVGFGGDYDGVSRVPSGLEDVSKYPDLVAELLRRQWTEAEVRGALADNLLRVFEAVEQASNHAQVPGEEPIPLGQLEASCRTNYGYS

Ki ([1]; pH 7.1, 37° C., concentration giving 50% inhibition, calculated from multiple assays, GDP substrate): 0.048 µM
SMILES: CC1(C)CC1C(=O)N/C(=C\CCCC(=O)O)C(=O)O (racemic) [Compound 64]

SMILES: CCCCC/C=C(\NC(=O)[C@H]1CC1(C)C)C(=O)O [dextrorotatory isomer, (+) Z-2-(2,2-dimethylcyclopropanecarboxamido)-2-octenoic acid]
activity of resolved isomers ([1]; resolved racemic octenoic acid, test not specified): The activity resides in the dextrorotatory isomer

SMILES: NCC(=O)NC(=Cc1ccccc1)C(=O)O [GDP, glycyldehydrophenylalanine]
maximal velocity of hydrolysis by renal dipeptidase (renal dipeptidase): much higher maximal velocity of hydrolysis
